Results on three compounds are retold here after patent US8148388B2, “2,4 (4,6) pyrimidine derivatives” (Janssen Pharmaceutica, N.V., priority 2004, dated 2012).

One data set addresses CSK (h) (Homo sapiens, UniProt P41240). Briefly: CSK human kinase assay (glass-fiber filter). In kind it is biochemical. The note with it: test concentration of 10^−6M; read-out: C2 score (inhibition of CSK human). Here is the method: In the glass-fiber filter technology the activity of the kinase of interest is measured using an appropriate substrate that is incubated with the aforementioned kinase protein in the presence of (^33P) radiolabeled ATP. (^33P) Phosphorylation of the substrate is subsequently measured as radioactivity bound on a glass fiber-filter.
All kinases are pre-diluted to a 10× working concentration prior to addition into the assay. The composition of the dilution buffer for each kinase is detailed below.
In a final reaction volume of 25 μl, CSK (h) (5-10 mU) is incubated with 50 mM Tris pH 7.5, 0.1 mM EGTA, 0.1 mM Na3VO4, 0.1% β-mercaptoethanol, 0.1 mg/ml poly(Glu, Tyr) 4:1, 10 mM MnCl2, 10 mM MgAcetate and [γ-^33P-ATP] (specific activity approx. 500 cpm/pmol, concentration as required). The reaction is initiated by the addition of the MgATP mix. After incubation for 40 minutes at room temperature, the reaction is stopped by the addition of 5 μl of a 3% phosphoric acid solution. 10 μl of the reaction is then spotted onto a Filtermat A and washed three times for 5 minutes in 75 mM phosphoric acid and once in methanol prior to drying and scintillation counting.

A further data set has as its target Fms (h) (Homo sapiens, UniProt P07333). Briefly: Fms human kinase assay (glass-fiber filter). In kind it is biochemical. Conditions: test concentration of 10^−6M; read-out: C7 score (inhibition of Fms human). The essentials:
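Radiometric filter-binding assay: Fms (5-10 mU) with 250 μM peptide substrate and [γ-33P]ATP in 8 mM MOPS pH 7.0, 10 mM Mg acetate, 40 min at room temperature. Reaction stopped with phosphoric acid; substrate-bound 33P counted on P30 filtermat.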

The conditions of data set [1]: amide bond, DMF, 25.0 °C.
The target of the next data set is Fes (h) (Homo sapiens, UniProt P07332). Briefly: Fes human kinase assay (glass-fiber filter). In kind it is biochemical. The note with it: test concentration of 10^−6M; read-out: C4 score (inhibition of Fes human). Summed up:
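Human Fes (5–10 mU) was incubated with 0.1 mg/ml poly(Glu,Tyr) 4:1 in 8 mM MOPS pH 7.0, 0.2 mM EDTA, 10 mM Mg acetate and [γ-33P]ATP for 40 min at room temperature. The reaction was stopped with phosphoric acid, and substrate phosphorylation was quantified by filter binding and scintillation counting.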

The next data set concerns the target cSRC (h) (Homo sapiens, UniProt P12931). Briefly: cSRC human kinase assay (glass-fiber filter). It counts as biochemical. Conditions: test concentration of 10^−6M; read-out: C3 score (inhibition of cSRC human). The essentials: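 Radiometric assay: kinase and substrate are incubated with [33P]ATP, with the reaction started by MgATP mix. The reaction is spotted on P30 filtermat, washed in 75 mM phosphoric acid and methanol, and the bound 33P is measured by scintillation counting.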

Another data set has as its target Flt3 (h) (Homo sapiens, UniProt P36888). Briefly: Flt3 human kinase assay (glass-fiber filter). In kind it is biochemical. Conditions: test concentration of 10^−6M; read-out: C6 score (inhibition of Flt3 human). The essentials:
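Human Flt3 (5-10 mU) with 50 μM peptide substrate in 8 mM MOPS pH 7.0, 0.2 mM EDTA, 10 mM Mg acetate and [γ-33P]ATP (concentration as required), 40 min at room temperature. Reaction stopped with phosphoric acid; substrate 33P incorporation counted on P30 glass-fiber filter.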

For the next data set, the target named is Lck (h) (Homo sapiens, UniProt P06239). Briefly: Lck human kinase assay (glass-fiber filter). In kind it is biochemical. The note with it: test concentration of 10^−6M; read-out: C9 score (inhibition of Lck human). Summed up: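 Kinase activity measured as transfer of (^33P) from radiolabeled MgATP to substrate, captured on P30 glass-fiber filtermat, washed in 75 mM phosphoric acid and methanol, then scintillation counted.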
Lck (h), sequence (P06239 whole entry): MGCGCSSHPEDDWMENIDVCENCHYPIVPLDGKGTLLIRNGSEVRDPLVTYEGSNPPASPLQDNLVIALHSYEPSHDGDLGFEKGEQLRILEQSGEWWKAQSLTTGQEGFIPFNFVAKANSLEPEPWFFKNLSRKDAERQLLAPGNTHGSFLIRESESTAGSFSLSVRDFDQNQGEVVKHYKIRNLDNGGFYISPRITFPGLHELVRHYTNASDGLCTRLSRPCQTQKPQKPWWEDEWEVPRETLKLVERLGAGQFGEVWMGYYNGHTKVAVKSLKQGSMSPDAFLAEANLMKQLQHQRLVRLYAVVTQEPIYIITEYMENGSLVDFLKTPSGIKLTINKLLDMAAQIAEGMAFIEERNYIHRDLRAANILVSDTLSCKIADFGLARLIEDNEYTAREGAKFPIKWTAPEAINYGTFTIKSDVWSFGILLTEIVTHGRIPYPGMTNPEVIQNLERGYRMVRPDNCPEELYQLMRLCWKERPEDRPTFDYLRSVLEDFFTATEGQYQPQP

The next data set deals with Yes (h) (Homo sapiens, UniProt P07947). Briefly: Yes human kinase assay (glass-fiber filter). In kind it is biochemical. The note with it: test concentration of 10^−6M; read-out: C11 score (inhibition of Yes human). The essentials: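 Yes (h) (5-10 mU) with 0.1 mg/ml poly(Glu, Tyr) 4:1 in 8 mM MOPS pH 7.0, 0.2 mM EDTA, 10 mM MgAcetate and [γ-^33P-ATP], 40 minutes at room temperature. Stopped with phosphoric acid; substrate-bound ^33P counted on glass-fiber filter by scintillation.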
Yes (h), sequence (P07947 whole entry): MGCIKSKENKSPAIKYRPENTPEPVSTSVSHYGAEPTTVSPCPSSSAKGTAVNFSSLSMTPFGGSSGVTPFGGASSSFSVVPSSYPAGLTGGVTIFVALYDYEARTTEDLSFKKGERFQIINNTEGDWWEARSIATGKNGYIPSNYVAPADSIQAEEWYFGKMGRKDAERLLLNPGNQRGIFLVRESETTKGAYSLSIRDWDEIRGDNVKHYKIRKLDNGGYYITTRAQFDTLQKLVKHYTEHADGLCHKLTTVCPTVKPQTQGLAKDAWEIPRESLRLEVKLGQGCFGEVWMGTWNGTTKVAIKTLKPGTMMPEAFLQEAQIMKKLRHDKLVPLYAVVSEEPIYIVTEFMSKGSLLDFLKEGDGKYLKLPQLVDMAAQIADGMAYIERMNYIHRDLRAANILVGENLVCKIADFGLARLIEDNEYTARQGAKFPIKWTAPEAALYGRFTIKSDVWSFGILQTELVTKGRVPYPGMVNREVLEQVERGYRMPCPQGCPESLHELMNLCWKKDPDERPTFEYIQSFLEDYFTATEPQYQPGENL

The target in a further data set is EGFR (h) (Homo sapiens, UniProt P00533). Briefly: EGFR human kinase assay (glass-fiber filter). It counts as biochemical. The note with it: test concentration of 10^−6M; read-out: C4 score (inhibition of EGFR human). The essentials: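 Human EGFR (5-10 mU) phosphorylated 0.1 mg/ml poly(Glu, Tyr) 4:1 in 8 mM MOPS pH 7.0, 0.2 mM EDTA, 10 mM MnCl2, 10 mM MgAcetate with [γ-33P]ATP at unspecified concentration. Incubation lasted 40 minutes at room temperature, was stopped with phosphoric acid, and filter-bound 33P was counted by scintillation.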

A further data set concerns the target Lyn (h) (Homo sapiens, UniProt P07948). Briefly: Lyn human kinase assay (glass-fiber filter). In kind it is biochemical. Conditions: test concentration of 10^−6M; read-out: C10 score (inhibition of Lyn human). The essentials: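 Human Lyn (5-10 mU) phosphorylating poly(Glu,Tyr) 4:1 at 0.1 mg/ml with [γ-33P]ATP (concentration as required) in 50 mM Tris pH 7.5, 10 mM Mg acetate, 40 min at room temperature. Stopped with phosphoric acid; substrate-bound radioactivity counted on glass-fibre filter.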

A further data set deals with Abl (h) (Homo sapiens, UniProt P00519). Briefly: Abl human kinase assay (glass-fiber filter). In kind it is biochemical. Conditions: test concentration of 10^−6M; read-out: C1 score (inhibition of Abl human).
Abl (h), sequence (P00519 whole entry): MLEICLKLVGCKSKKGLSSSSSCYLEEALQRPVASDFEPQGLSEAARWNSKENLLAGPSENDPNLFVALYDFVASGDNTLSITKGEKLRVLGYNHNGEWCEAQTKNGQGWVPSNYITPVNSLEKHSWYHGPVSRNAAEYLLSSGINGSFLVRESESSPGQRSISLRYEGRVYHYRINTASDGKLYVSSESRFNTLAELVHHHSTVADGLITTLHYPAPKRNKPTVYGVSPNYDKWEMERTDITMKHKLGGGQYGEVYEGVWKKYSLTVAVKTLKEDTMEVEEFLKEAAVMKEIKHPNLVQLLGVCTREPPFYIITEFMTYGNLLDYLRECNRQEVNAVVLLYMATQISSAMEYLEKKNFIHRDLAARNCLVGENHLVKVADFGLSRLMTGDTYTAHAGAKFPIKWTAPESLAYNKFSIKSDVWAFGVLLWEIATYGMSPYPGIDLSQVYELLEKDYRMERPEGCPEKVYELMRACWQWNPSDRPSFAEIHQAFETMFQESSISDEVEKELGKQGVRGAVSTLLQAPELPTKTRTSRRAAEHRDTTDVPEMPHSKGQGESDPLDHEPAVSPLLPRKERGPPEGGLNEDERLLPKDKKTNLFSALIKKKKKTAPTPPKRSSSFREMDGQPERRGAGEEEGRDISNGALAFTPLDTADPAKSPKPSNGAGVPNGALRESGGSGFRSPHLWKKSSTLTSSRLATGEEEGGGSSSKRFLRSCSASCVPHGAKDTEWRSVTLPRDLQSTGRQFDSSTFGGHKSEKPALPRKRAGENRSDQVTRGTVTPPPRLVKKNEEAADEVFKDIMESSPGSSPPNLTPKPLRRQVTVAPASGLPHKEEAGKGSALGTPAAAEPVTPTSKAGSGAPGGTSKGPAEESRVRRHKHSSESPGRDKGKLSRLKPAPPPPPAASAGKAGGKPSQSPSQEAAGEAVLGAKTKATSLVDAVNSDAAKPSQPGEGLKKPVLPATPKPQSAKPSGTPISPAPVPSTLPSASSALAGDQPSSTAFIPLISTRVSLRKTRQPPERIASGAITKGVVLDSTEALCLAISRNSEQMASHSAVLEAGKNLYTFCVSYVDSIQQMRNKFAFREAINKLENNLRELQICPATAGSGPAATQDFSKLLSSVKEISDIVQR

The structures appear in SMILES notation. Where two headings read alike, the source gives them in different places.

CSK (h), sequence (P41240 whole entry): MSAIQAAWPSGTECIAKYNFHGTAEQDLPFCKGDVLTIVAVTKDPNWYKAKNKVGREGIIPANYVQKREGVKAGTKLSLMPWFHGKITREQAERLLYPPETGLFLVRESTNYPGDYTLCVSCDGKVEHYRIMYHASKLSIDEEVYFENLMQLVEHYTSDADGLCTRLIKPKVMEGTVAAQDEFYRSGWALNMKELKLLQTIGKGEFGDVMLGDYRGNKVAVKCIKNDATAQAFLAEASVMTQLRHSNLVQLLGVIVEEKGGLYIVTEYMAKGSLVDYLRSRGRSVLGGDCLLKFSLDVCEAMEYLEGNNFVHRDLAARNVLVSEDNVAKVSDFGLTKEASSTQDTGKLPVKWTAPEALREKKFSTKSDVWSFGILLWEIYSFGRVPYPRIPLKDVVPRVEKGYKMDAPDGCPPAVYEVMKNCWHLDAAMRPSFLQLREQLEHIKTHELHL
cSRC (h), sequence (P12931 whole entry): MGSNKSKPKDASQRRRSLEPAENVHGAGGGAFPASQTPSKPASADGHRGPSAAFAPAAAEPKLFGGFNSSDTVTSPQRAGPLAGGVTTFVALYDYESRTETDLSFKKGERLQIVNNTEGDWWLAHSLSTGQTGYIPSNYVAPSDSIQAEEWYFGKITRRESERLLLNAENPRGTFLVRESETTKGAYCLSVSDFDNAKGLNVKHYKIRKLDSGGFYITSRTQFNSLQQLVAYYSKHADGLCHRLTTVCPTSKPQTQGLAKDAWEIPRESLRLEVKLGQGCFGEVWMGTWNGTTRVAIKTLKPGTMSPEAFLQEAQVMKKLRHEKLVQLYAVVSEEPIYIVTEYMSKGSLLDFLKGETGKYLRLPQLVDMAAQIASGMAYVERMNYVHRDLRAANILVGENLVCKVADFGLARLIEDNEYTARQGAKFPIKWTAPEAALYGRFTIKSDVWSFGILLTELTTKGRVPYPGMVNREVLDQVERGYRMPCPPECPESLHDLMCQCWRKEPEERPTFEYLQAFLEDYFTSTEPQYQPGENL
Fms (h), sequence (P07333 20-972): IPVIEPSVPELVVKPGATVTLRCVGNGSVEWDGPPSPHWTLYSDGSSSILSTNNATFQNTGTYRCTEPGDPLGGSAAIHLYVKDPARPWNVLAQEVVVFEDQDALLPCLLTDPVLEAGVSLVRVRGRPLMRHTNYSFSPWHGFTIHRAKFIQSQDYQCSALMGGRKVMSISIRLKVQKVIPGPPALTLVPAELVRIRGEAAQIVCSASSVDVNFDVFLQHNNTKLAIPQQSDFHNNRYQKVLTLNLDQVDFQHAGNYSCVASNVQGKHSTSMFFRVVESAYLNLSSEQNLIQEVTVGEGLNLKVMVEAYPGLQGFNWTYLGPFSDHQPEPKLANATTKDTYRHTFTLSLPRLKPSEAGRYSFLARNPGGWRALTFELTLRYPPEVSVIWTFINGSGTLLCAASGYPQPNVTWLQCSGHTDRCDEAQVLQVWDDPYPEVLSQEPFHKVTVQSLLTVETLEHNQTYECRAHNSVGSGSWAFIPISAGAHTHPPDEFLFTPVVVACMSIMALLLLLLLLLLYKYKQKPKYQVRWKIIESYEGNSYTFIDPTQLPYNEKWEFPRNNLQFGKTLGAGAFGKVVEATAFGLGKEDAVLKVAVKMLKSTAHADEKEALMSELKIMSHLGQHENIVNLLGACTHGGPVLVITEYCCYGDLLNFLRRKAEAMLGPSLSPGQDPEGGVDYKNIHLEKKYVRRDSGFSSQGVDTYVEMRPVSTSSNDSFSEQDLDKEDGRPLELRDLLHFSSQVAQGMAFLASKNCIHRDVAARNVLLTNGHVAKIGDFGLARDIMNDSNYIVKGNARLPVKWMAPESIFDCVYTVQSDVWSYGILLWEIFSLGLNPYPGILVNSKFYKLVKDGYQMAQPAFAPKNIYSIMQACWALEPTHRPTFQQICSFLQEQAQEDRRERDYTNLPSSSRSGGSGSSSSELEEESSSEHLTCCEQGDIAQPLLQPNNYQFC
Lyn (h), sequence (P07948 whole entry): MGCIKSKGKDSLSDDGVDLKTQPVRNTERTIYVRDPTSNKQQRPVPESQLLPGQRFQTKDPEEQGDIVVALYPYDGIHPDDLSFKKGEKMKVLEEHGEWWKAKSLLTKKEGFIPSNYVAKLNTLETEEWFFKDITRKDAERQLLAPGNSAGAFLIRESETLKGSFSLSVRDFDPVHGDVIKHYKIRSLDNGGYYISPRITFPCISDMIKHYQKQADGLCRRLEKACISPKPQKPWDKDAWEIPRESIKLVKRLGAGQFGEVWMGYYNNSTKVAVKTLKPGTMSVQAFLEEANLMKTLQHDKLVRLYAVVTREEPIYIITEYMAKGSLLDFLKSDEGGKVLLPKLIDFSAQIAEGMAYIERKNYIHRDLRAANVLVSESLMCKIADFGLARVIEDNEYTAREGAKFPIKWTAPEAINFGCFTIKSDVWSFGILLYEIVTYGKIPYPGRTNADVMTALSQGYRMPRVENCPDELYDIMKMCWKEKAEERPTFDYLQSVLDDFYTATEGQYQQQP

The inhibition is how much of the control response was suppressed. In general, melting point refers to the temperature of the solid-liquid transition. In the case of `N#Cc1cnc2nc1Nc1cccc(c1)C(=O)NCCOc1cccc(c1)N2` [Compound 3, 18-oxa-2,4,8,15,25-pentaazatetracyclo[17.3.1.1˜3,7˜.1˜9,13˜]pentacosa-1(23),3,5,7(25),9,11,13(24),19,21-nonaene-6-carbonitrile, 14-oxo-], the melting point was > 260 °C. The inhibition at 1 µM at CSK (h) lay within 10 to 30%. Also, on Fms (h), the inhibition at 1 µM was in the range of 30 to 60%. The ring closure, yield of all isomers in [1] (from N#Cc1cnc(Nc2cccc(OCCN)c2)nc1Nc1cccc(C(=O)O)c1, HBTU, 4.0 mM, 17.0 h) is 15%. Also, at Fes (h), the inhibition at 1 µM was in the range of 10 to 30%. In addition, the inhibition at 1 µM at cSRC (h) was in the range of 10 to 30%. The inhibition at 1 µM on Flt3 (h) lay in the range of 30 to 60%. In addition, on Lck (h), the inhibition at 1 µM is 10 to 30%. In addition, the inhibition at 1 µM at Yes (h) lay in the range of 10 to 30%.

On to `O=C1NCCCCCCNC(=O)c2cccc(c2)Nc2cc(ncn2)Nc2cccc1c2` [Compound 8, 2,4,6,8,15,22-hexaazatetracyclo[22.3.1.1˜3,7˜.1˜9,13˜]triaconta-1(28),3,5,7(30),9,11,13(29),24,26-nonaene-14,23-dione], for which the melting point amounted to 307 °C. Moreover, on CSK (h), the inhibition at 1 µM was in the range of 10 to 30%. For the same compound, at Fms (h), the inhibition at 1 µM was in the range of 30 to 60%. Also, in [1] (from NCCCCCCNC(=O)c1cccc(Nc2cc(Nc3cccc(C(=O)O)c3)ncn2)c1, PyBOP, 3.45 mM, 1.5 h), the ring closure, yield of all isomers amounted to 33.7%. Moreover, the inhibition at 1 µM at EGFR (h) fell in the range of 10 to 30%. The inhibition at 1 µM on Lyn (h) was in the range of 10 to 30%. In addition, the inhibition at 1 µM on Yes (h) lay within 10 to 30%. Moreover, the inhibition at 1 µM at Abl (h) lay within 10 to 30%.

Consider `COc1ccc2cc1OCCCNCCOc1ccc(Cl)cc1Nc1cc(ncn1)N2` [Compound 13, 1H,7H-6,2:8,12-dimetheno-13,20,1,3,5,7,17-benzodioxapentaazacyclodocosine, 23-chloro-14,15,16,17,18,19-hexahydro-11-methoxy-], for which the melting point is > 260 °C. Further, at EGFR (h), the inhibition at 1 µM was > 80%. Also, the inhibition at 1 µM at Lyn (h) was > 80%. The inhibition at 1 µM at cSRC (h) is 10 to 30%. In addition, on Lck (h), the inhibition at 1 µM fell in the range of 30 to 60%. Besides, the inhibition at 1 µM on Yes (h) is > 80%. In addition, the inhibition at 1 µM on Abl (h) was 10 to 30%.
